# Patent US5391800A, “Method for inhibition of cell motility by sphingosine-1-phosphate, its derivatives and mimetics and method of synthesizing sphingosine-1-phosphate and its derivatives” (The Biomembrane Institute, priority 1993, dated 1995)
# Entries after “also recorded” stand apart in the source; their conditions may differ.
# Assays:
# [1] = Toxicity to B16/F1 melanoma cells, trypan blue exclusion; type: cell-based, mouse; details: mouse, b16/f1 cells; B16/F1; 50 μM; 1 hour incubation; control 99; read-out: Cell viability (%)
# Method: (§1) Effects of SPN derivatives on protein kinase C activity and cell growth of B16/F1 cells was also investigated. […] Toxicity of these compounds to B16/F1 cells and human neutrophils was also examined using a trypan blue exclusion assay after 1 hour incubation with the compounds.
# B16/F1 melanoma cells = test: as above; type: cell-based, mouse; details: for Toxicity: 45-50 μM, B16/F1 cells, 1 hour
# Method: as §1
# [2] = Toxicity to human neutrophils, trypan blue exclusion; type: cell-based; details: human, neutrophils; neutrophil; 45 μM; 1 hour incubation; control 99; read-out: Cell viability (%)
# Method: as §1
# human neutrophils [3] = test: as above; type: cell-based; details: 45-50 μM; human neutrophils; 1 hour
# Method: as §1
# human neutrophils [4] = test: Phagokinetic activity of human neutrophils on gold sol-coated plates; type: cell-based; details: for Cleared area: 2 hours, mean ± S.D., control 6.3 ± 2.3; for Reduction in phagokinetic activity of human neutrophils: Table VII, in words
# Method: (§2) Phagokinetic activity is measured by the ability of cells to ingest foreign particles while moving. Cell motility can be estimated as the area of a phagokinetic track on gold sol particle-coated plates as previously described {Albrecht-Buehler, Cell, 11:395 (1977)}. A uniform coating of gold particles is prepared on glass coverslips precoated with bovine serum albumin, and coverslips are rinsed repeatedly to remove non-adhering or loosely-adhering gold particles. Freshly-prepared neutrophils or tumor cells detached from culture are placed in a Petri dish containing the gold sol-coated plate, and incubated for about 2 hours (for human neutrophils) or about 18 hours (for tumor cells). The coverslips are fixed for 1 hour in a 4% formaldehyde solution in phosphate-buffered saline (PBS) and mounted on microscope slides. The phagokinetic tracks are observed on a television connected to a light microscope (Nikon, Tokyo, Japan). Tracks on the television are transferred to translucent sheets, which are then photocopied. Phagokinetic activity is quantitated by cutting and weighing the swept area in the copy.
# Cell motility was estimated as the area of phagokinetic track on gold sol particle-coated plates as previously described {Albrecht-Buehler, Cell, 11:395 (1977)}. A uniform coating of gold particles was prepared on glass coverslips precoated with bovine serum albumin, and the coverslips were rinsed repeatedly to remove non-adhering or loosely-adhering gold particles. Freshly-prepared neutrophils or tumor cells detached from culture were placed in a Petri dish containing the gold sol-coated plate, and incubated for 2 hours (for human neutrophils) or 18 hours (for tumor cells). The coverslips were fixed for 1 hour in 4% formaldehyde solution in phosphate-buffered saline (PBS) and mounted on microscope slides. The phagokinetic tracks were observed on a television connected to a light microscope (Nikon, Tokyo, Japan). Tracks on the television were transferred to translucent sheets, which were then photocopied. Phagokinetic activity was quantitated by cutting and weighing the swept area in the copy.
# **mean ± S.D. Freshlyprepared neutrophils (1 × 10^4
# cell/plate) were seeded on a coverslip precoated with gold sol particles
# in the presence or absence of test compound. 2 hours later, incubation wa
# terminated by adding 200 μl of 10% formaldehyde and the cleared area
# was estimated as described in the text.
# B16/F1 cells [5] = test: Phagokinetic activity of B16/F1 cells on gold sol-coated plates; type: cell-based, mouse; details: FIGS. 11A-F, SPN-1-P at 1.0 or 0.1 μM
# Method: as §2
# Cell motility was estimated as the area of phagokinetic track on gold sol particle-coated plates as previously described {Albrecht-Buehler, Cell, 11:395 (1977)}. […] Phagokinetic activity was quantitated by cutting and weighing the swept area in the copy. […]
# B16/F1 cells [6] = test: Uptake and metabolic conversion of 3H-SPN and 14C-TMS in B16/F1 cells; type: in vitro ADME, mouse; details: for Incorporation into B16/F1 cells: 3H-labeled SPN, 14C-labeled TMS; for Metabolic conversion: B16/F1 cells
# Excerpt: FIGS. 12A and 12B depict the time-course uptake of ^3 H-SPN (FIG. 12A) and ^14 C-TMS (FIG. 12B) by B16/F1 cells. The ordinate represents % radioactivity taken up by B16/F1 cells and the abscissa represents time in hours.
# FIGS. 13A-13C depict the time-course changes in labeling of various SPN derivatives after addition of ^3 H-SPN to B16/F1 cells:
# FIG. 13A: thin-layer chromatography (TLC) of lipids separated from Folch's lower phase;
# FIG. 13B: TLC of lipids separated from Folch's upper phase followed by incubation with ^14 C-TMS and extraction;
# FIG. 13C: TLC of lipids separated from Folch's upper phase.
# Lane 1, 0 minute. Lane 2, 10 minutes. Lane 3, 30 minutes. Lane 4, 1 hour. Lane 5, 2 hours. Lane 6, 4 hours. Lane 7, 20 hours. CER represents ceramide; CMH represents ceramide monohexoside; PE represents phosphatidyl-ethanolamine; SM represents sphingomyelin; TMS represents N,N,N-trimethylsphingosine; SPN represents sphingosine; SPN-1-P represents sphingosine-1-phosphate; and ORG represents the origin.
# In addition, the uptake and metabolic conversion of SPN vs. TMS was investigated. […] Rapid conversion of SPN into sphingosine-1-phosphate is clearly indicated by the appearance of bands corresponding to SPN-1-P prior to conversion into Cer. The SPN-1-P peak appeared after 10 minutes incubation, whereas the Cer peak appeared after 1 hour incubation.
# [7] = 3H-SPN, in the presence of D-PDMP
SMILES,"viability at 1 h, 50 µM [1]",Toxicity (B16/F1 melanoma cells),"viability at 1 h, 45 µM [2]",Toxicity (human neutrophils [3]),Cleared area (human neutrophils [4]; 0.45 μM),Area cleared by tumor cells (B16/F1 cells [5]),Appearance of Cer peak after incubation with SPN (B16/F1 cells [6]; [7]),Appearance of SPN-1-P peak after incubation with SPN (B16/F1 cells [6]; [7]),Incorporation into B16/F1 cells (B16/F1 cells [6]),Metabolic conversion (B16/F1 cells [6]),"Cytotoxicity, comparison (B16/F1 melanoma cells; concentration not given)",Cleared area (human neutrophils [4]; 1.0 μM),Cleared area (human neutrophils [4]; 4.5 μM),Reduction in phagokinetic activity of human neutrophils (human neutrophils [4])
"CCCCCCCCCCCCC/C=C/[C@@H](O)[C@@H](N)CO [SPN, sphingosine]",21%,very toxic,5%,very toxic,5.2 ± 2.0 × 10^3 μm^2,reduced the area cleared by tumor cells,1 h,10 min,rapidly incorporated,rapidly converted into SPN-1-P and ceramide; also recorded: can be converted to SPN-1-P,,,,
"CCCCCCCCCCCCC/C=C/[C@@H](O)[C@@H](N)COP(=O)(O)O [SPN-1-P, sphingosine-1-phosphate]",72%,weak toxicity,98%,weak toxicity,5.5 ± 2.7 × 10^3 μm^2,greatly reduced,,,,,"far less cytotoxic than SPN, DMS, or TMS",5.4 ± 2.4 × 10^3 μm^2,3.5 ± 1.4 × 10^3 μm^2,most striking
"CCCCCCCCCCCCC/C=C/[C@@H](O)[C@H](CO)[N+](C)(C)C [TMS, N,N,N-trimethylsphingosine]",,,,,5.4 ± 2.7 × 10^3 μm^2,,,,rapidly incorporated,unchanged regardless of incubation time; also recorded: cannot be phosphorylated,,3.6 ± 1.5 × 10^3 μm^2,,most striking
